Where “and” joins values, the source holds several entries; their conditions need not be identical. Equal entries are not always repeated. Where two headings read alike, the source gives them in different places.
Experiments:
HS 578T = assay: NCI growth inhibition (SRB) assay; type: cell-based; conditions: Homo sapiens, Breast Cancer, single dose 10 µM, 48 h, read-out: Percent Growth Inhibition (GI)
Method: (§1) The antitumor assay was performed according to the protocol of the Drug Evaluation Branch, NCI, Bethesda. A 48 h drug exposure protocol was adopted, and sulforhodamine B (SRB) assay was utilized to assess the cell growth and viability, as reported earlier.
(§2) The inhibition results of tumor cell growth by the newly synthesized compounds (5a–5g) are described in Table 4. The reported measurements have been performed at the NIH National Cancer Institute, USA by a standardized assay including a panel of 60 different tumor cell lines (Supplementary Data). The following cancer cell types were included in these assays: Leukemia, non-small cell lung cancer, colon cancer, CNS cancer, melanoma, ovarian cancer, renal cancer, prostate, and breast cancer. […] Additionally, the 3,4-dimethoxy substituted compound (5b) also suffered poor activity against the cancer cell lines.

SNB-75 = assay: NCI growth inhibition (SRB) assay; type: cell-based; conditions: Homo sapiens, SNB-75, CNS Cancer, single dose 10 µM, 48 h, read-out: Percent Growth Inhibition (GI)
Method: as §1, §2

HCT-116 = assay: NCI growth inhibition (SRB) assay; type: cell-based; conditions: Homo sapiens, HCT-116, Colon Cancer, single dose 10 µM, 48 h, read-out: Percent Growth Inhibition (GI)
Method: as §1, §2

PC-3 = assay: NCI growth inhibition (SRB) assay; type: cell-based; conditions: Homo sapiens, PC-3, Prostate Cancer, single dose 10 µM, 48 h, read-out: Percent Growth Inhibition (GI)
Method: as §1, §2

HT29 = assay: NCI growth inhibition (SRB) assay; type: cell-based; conditions: Homo sapiens, HT-29, HT29, Colon Cancer, single dose 10 µM, 48 h, read-out: Percent Growth Inhibition (GI)
Method: as §1, §2

UACC-62 = assay: NCI growth inhibition (SRB) assay; type: cell-based; conditions: Homo sapiens, UACC-62, Melanoma, single dose 10 µM, 48 h, read-out: Percent Growth Inhibition (GI)
Method: as §1, §2

HL-60(TB) = assay: NCI growth inhibition (SRB) assay; type: cell-based; conditions: Homo sapiens, Leukemia, single dose 10 µM, 48 h, read-out: Percent Growth Inhibition (GI)
Method: as §1, §2

CAKI-1 = assay: NCI growth inhibition (SRB) assay; type: cell-based; conditions: Homo sapiens, CAKI-1, Renal Cancer, single dose 10 µM, 48 h, read-out: Percent Growth Inhibition (GI)
Method: as §1, §2

HCT-15 = assay: NCI growth inhibition (SRB) assay; type: cell-based; conditions: Homo sapiens, HCT-15, Colon Cancer, single dose 10 µM, 48 h, read-out: Percent Growth Inhibition (GI)
Method: as §1, §2

SF-539 = assay: NCI growth inhibition (SRB) assay; type: cell-based; conditions: Homo sapiens, SF-539, CNS Cancer, single dose 10 µM, 48 h, read-out: Percent Growth Inhibition (GI)
Method: as §1, §2

COLO 205 = assay: NCI growth inhibition (SRB) assay; type: cell-based; conditions: Homo sapiens, COLO 205, Colon Cancer, single dose 10 µM, 48 h, read-out: Percent Growth Inhibition (GI)
Method: as §1, §2

CDK2/cyclin A = molecular target: T1, CDK2/cyclin A (Homo sapiens, UniProt P24941); assay: In vitro kinase inhibition assay (HotSpot, Reaction Biology); type: biochemical; conditions: single dose of 10 µM; 10 µM ATP as printed; read-out: Percent Inhibition, CDK2/cyclin A
T1 construct: purchased Reaction Biology Corp
Method: (§3) The in vitro kinase inhibition assay was carried out by Reaction Biology Corp. (Reaction Biology Corp., Chester, PA, USA) Kinase HotSpot^SM service (http://www.reactionbiology.com, accessed on 15 January 2021), following the previously reported methods. (For details, see Supplementary Material).
(§4) As mentioned in the introduction, to get insights about the kinase inhibition profile of the hybrid small molecule 5a, an in vitro screening over a panel of 14 cancer-related kinases was carried out. Accordingly, 10 µM concentrations of compound 5a were used in a kinase inhibition assay over various kinase groups and families in the presence of 10 µM ATP using HotSpotSM technology. To get a comprehensive picture of the inhibitory activities of the tested compound (5a) against the kinase panel, data are illustrated in Table 1. […] Compound 5a was also able to suppress the kinase activity of the epidermal growth factor receptor (EGFR), platelet-derived growth factor receptor-alpha (PDGFRα), and cyclin-dependent kinase 2 (CDK2) with modest inhibition values of 26.99 ± 0.9, 24.0 ± 0.4, and 20.1 ± 0.1%, respectively. […] Several studies have confirmed direct relationships between the most affected kinases (FMS, LCK, LYN, and DAPK1) and different human disorders including cancer.
(§5) 5. Protocol of Kinase assay
(§6) Kinases inhibitory activities were assessed by the HotSpot assay platform, which contained specific kinase/substrate pairs along with required cofactors. Base reaction buffer: 20 mM Hepes (pH 7.5), 10 mM MgCl2, 1 mM EGTA, 0.02% Brij35, 0.02 mg/ml BSA, 0.1 mM Na3VO4, 2 mM DTT, 1% DMSO. Testing compounds were dissolved in 100% DMSO to specific concentration. The serial dilution was conducted by Integra Viaflo Assist in DMSO. The reaction mixture containing the examined compound and 33P-ATP was incubated at room temperature for 2h and radioactivity was detected by filter-binding method. Kinase activity data were expressed as the percent remaining kinase activity in test samples compared to vehicle (dimethyl sulfoxide) reactions. IC50 values and curve fits were obtained using Prism (GraphPad Software).
(§7) 6. Biology raw data for IC50 determination
(§8) Paper ID Cpd ID NSC Number

BRAF = molecular target: T2, BRAF (Homo sapiens, UniProt P15056); assay: as above; type: biochemical; conditions: single dose of 10 µM; 10 µM ATP as printed; read-out: Percent Inhibition, BRAF
T2 construct: purchased Reaction Biology Corp
T2 sequence (P15056 whole entry): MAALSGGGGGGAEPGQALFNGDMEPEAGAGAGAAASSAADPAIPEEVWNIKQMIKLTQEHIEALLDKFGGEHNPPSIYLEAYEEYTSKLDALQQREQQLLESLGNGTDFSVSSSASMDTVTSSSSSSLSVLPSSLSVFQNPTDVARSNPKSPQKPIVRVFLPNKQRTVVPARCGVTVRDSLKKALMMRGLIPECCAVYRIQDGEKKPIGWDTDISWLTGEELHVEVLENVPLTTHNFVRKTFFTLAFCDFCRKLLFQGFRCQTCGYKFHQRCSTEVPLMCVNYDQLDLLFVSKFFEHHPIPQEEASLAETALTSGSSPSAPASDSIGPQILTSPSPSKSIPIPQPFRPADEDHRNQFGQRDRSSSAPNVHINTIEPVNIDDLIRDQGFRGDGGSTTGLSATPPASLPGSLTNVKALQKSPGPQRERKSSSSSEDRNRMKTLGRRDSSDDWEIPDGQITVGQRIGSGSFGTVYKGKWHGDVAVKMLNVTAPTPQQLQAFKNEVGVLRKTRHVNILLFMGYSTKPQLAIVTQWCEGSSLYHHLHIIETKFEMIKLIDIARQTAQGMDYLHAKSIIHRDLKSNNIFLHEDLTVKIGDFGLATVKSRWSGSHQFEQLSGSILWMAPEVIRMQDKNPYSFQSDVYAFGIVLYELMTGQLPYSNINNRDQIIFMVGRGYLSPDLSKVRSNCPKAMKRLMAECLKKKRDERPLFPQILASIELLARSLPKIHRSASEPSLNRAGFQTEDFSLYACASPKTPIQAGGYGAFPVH
Method: as §3, §4, §5, §6, §7, §8

PDGFRα = molecular target: T3, PDGFRα (Homo sapiens, UniProt P16234); assay: as above; type: biochemical; conditions: single dose of 10 µM; 10 µM ATP as printed; read-out: Percent Inhibition, PDGFRα
T3 construct: purchased Reaction Biology Corp
T3 sequence (P16234 24-1089): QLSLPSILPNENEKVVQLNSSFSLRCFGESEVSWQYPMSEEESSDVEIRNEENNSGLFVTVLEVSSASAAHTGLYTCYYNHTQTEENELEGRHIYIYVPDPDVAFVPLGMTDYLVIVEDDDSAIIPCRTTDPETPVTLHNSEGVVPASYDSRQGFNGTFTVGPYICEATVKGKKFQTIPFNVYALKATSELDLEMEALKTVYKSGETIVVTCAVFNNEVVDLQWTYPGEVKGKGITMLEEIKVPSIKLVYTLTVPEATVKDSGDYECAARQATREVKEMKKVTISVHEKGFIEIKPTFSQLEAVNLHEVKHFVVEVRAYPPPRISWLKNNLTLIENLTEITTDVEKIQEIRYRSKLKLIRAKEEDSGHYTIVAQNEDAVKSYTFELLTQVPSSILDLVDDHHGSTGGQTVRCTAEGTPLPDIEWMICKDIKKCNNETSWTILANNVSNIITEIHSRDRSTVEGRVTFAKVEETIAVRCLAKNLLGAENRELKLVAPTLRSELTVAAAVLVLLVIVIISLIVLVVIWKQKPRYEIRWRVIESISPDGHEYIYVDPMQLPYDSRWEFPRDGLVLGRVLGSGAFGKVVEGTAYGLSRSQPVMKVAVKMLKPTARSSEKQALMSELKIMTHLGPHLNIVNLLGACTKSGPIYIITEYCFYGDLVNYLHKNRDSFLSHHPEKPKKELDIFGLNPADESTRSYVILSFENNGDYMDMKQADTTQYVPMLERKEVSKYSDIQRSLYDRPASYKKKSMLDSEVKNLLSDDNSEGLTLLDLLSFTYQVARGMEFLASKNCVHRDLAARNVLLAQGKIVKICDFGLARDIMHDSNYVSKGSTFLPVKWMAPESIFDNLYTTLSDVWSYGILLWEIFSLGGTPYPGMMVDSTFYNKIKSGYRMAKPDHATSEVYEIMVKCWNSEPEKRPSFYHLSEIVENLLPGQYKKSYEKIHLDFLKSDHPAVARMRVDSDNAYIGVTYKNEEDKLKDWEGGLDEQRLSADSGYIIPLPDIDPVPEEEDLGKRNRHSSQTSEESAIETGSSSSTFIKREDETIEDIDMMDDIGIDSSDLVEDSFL
Method: as §3, §4, §5, §6, §7, §8

FLT1/VEGFR1 = molecular target: T4, FLT1/VEGFR1 (Homo sapiens, UniProt P17948); assay: as above; type: biochemical; conditions: single dose of 10 µM; 10 µM ATP as printed; read-out: Percent Inhibition, FLT1/VEGFR1
T4 construct: purchased Reaction Biology Corp
T4 sequence (P17948 27-1338): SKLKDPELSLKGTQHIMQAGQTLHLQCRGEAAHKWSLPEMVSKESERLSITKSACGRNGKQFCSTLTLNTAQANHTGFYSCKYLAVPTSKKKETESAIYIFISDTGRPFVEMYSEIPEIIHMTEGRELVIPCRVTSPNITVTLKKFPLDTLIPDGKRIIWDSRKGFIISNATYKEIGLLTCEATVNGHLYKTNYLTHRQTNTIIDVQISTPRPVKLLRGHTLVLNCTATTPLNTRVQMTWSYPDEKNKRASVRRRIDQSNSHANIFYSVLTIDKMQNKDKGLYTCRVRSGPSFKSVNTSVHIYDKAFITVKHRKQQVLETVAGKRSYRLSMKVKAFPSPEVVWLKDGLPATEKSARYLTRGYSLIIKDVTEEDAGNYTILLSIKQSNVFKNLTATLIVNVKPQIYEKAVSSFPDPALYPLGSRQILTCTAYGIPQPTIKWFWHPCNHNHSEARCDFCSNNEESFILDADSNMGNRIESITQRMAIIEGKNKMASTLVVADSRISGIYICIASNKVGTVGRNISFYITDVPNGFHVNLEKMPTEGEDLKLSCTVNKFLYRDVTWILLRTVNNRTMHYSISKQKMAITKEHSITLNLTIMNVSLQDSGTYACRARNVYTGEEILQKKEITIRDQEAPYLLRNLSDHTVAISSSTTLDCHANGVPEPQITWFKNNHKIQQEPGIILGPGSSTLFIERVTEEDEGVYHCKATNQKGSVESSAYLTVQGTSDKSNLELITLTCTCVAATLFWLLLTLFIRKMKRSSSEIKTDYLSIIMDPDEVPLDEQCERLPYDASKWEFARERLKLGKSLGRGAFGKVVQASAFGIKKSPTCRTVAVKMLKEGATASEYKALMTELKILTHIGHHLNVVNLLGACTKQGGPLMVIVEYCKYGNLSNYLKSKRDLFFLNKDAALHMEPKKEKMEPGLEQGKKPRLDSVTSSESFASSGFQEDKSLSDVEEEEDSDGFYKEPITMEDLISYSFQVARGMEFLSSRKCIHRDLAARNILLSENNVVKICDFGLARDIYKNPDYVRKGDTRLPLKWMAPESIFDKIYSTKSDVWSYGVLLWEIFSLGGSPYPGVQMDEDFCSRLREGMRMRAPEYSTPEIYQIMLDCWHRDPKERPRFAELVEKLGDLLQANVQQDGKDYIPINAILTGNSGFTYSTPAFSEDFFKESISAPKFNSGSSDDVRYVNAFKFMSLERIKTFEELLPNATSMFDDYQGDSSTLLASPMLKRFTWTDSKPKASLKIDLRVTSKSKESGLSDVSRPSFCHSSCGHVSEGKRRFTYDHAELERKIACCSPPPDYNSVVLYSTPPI
Method: as §3, §4, §5, §6, §7, §8

c-MER = molecular target: T5, c-MER (Homo sapiens, UniProt Q12866); assay: as above; type: biochemical; conditions: single dose of 10 µM; 10 µM ATP as printed; read-out: Percent Inhibition, c-MER
T5 construct: purchased Reaction Biology Corp
T5 sequence (Q12866 21-999): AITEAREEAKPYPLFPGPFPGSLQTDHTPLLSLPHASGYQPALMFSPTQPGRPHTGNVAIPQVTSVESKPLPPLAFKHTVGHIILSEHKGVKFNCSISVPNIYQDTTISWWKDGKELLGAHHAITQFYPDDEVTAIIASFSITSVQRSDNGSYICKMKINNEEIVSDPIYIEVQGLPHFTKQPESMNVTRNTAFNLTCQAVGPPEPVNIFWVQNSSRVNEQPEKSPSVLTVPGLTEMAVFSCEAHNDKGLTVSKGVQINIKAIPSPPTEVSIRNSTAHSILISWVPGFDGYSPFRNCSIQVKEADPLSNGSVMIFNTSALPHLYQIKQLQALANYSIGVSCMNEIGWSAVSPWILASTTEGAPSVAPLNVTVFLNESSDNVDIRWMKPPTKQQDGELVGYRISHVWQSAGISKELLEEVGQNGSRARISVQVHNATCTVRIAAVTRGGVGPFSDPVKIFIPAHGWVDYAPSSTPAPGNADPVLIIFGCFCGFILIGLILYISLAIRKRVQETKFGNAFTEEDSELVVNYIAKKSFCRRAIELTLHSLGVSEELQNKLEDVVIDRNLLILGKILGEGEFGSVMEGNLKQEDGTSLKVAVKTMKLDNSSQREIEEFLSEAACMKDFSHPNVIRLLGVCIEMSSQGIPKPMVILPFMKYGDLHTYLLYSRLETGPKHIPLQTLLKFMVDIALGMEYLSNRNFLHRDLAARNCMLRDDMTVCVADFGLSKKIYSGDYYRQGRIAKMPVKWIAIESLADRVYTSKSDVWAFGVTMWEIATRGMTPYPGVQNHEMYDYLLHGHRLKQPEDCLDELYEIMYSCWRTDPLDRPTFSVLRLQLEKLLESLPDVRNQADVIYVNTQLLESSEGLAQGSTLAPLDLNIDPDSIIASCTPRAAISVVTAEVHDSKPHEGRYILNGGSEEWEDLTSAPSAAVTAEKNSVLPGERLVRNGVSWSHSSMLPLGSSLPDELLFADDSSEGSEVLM
Method: as §3, §4, §5, §6, §7, §8

FMS = molecular target: T6, FMS (Homo sapiens, UniProt P07333); assay: as above; type: biochemical; conditions: for inhibition at 10 µM: read-out: Percent Inhibition, FMS; for IC50: 10-dose, 3-fold serial dilution starting at 100 μM; for fold more potent than imatinib over FMS: from IC50 values
T6 construct: purchased Reaction Biology Corp
T6 sequence (P07333 20-972): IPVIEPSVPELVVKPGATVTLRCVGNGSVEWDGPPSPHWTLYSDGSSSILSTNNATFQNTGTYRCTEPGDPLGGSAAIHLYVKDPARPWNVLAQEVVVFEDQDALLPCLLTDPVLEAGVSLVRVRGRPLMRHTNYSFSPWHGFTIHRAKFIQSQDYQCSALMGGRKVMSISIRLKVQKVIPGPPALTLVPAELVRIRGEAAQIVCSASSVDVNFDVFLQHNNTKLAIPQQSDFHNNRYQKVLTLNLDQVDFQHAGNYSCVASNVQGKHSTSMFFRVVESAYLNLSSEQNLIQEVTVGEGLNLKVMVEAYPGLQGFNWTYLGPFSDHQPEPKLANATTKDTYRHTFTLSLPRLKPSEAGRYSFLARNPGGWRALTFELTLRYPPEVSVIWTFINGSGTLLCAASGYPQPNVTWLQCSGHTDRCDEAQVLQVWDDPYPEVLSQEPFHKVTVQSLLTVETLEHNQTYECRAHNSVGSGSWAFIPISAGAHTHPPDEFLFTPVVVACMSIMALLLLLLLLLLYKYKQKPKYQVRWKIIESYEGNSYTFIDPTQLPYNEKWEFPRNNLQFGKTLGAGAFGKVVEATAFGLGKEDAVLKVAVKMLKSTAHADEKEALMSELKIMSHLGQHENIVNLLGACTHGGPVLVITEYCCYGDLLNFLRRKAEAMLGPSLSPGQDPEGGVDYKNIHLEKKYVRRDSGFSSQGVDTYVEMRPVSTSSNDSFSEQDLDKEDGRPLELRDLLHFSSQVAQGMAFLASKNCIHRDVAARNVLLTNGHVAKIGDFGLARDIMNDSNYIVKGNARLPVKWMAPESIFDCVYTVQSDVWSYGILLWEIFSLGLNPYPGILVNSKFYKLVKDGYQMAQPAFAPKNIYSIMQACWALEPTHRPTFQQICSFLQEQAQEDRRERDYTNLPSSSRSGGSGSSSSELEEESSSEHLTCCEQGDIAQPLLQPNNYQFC
Method: as §3, §4, §5, §6

[1] = system: panel of 60 different tumor cell lines; assay: NCI antitumor assay, panel of 60 tumor cell lines; type: cell-based; conditions: single dose 10 µM, result in words
Method: as §1, §2

[2] = single dose of 10 µM, 10 µM ATP as printed

SMILES	melting point	inhibition at 10 µM (HS 578T)	inhibition at 10 µM (SNB-75)	inhibition at 10 µM (HCT-116)	inhibition at 10 µM (PC-3)	inhibition at 10 µM (HT29)	inhibition at 10 µM (UACC-62)	inhibition at 10 µM (HL-60(TB))	inhibition at 10 µM (CAKI-1)	inhibition at 10 µM (HCT-15)	inhibition at 10 µM (SF-539)	inhibition at 10 µM (COLO 205)	inhibition at 10 µM (FMS; [2])	inhibitory effects on the different cancer cell lines [1]	other results
COc1ccc(Oc2nc(Nc3ccc(N4CCOCC4)cc3)ncc2NC(=O)c2ccc3c(c2)OCO3)cc1 [5a, N-(4-(4-Methoxyphenoxy)-2-((4-morpholinophenyl)amino)pyrimidin-5-yl)benzo[d][1,3]dioxole-5-carboxamide]	205.9 to 206.9 °C	6.26%	-3.98%	14.6%	11.7%	28.3%	7.38%	16.2%	33.9%	26%	4.73%	1.75%	82.5 ± 0.6%	–	inhibition at 10 µM (CDK2/cyclin A): 20.1 ± 0.1%; inhibition at 10 µM (BRAF): 4.1 ± 10.5%; inhibition at 10 µM (PDGFRα): 24 ± 0.4%; inhibition at 10 µM (FLT1/VEGFR1): -2.4 ± 1.7%; inhibition at 10 µM (c-MER): 4.4 ± 0.1%
COc1ccc(Oc2nc(Nc3ccc(N4CCOCC4)cc3)ncc2NC(=O)c2ccc(OC)c(OC)c2)cc1 [5b, 3,4-Dimethoxy-N-(4-(4-methoxyphenoxy)-2-((4-morpholinophenyl)amino)pyrimidin-5-yl)benzamide]	119.1 to 120.1 °C	5.09%	-4.29%	6.01%	0.75%	-2.93%	0.1%	16.4%	20.6%	12.3%	-3.17%	-2.21%	44.1 ± 0.2%	moderate to poor	–
COc1ccc(Oc2nc(Nc3ccc(N4CCOCC4)cc3)ncc2NC(=O)c2cc(OC)c(OC)c(OC)c2)cc1 [5c, 3,4,5-Trimethoxy-N-(4-(4-methoxyphenoxy)-2-((4-morpholinophenyl)amino)pyrimidin-5-yl)benzamide]	179.5 to 180.5 °C	3.23%	3.59%	23.9%	11.6%	47.4%	-0.63%	31%	28.1%	34.4%	7.64%	21.6%	69.9 ± 0.4%	–	–
CCOc1cc(OCC)cc(C(=O)Nc2cnc(Nc3ccc(N4CCOCC4)cc3)nc2Oc2ccc(OC)cc2)c1 [5d, 3,5-Diethoxy-N-(4-(4-methoxyphenoxy)-2-((4-morpholinophenyl)amino)pyrimidin-5-yl)benzamide]	–	7.96%	19.2%	6.73%	27.3%	9.54%	12%	22.8%	20.6%	13.2%	8.01%	-2.11%	95.1 ± 0.3%	moderate to poor	IC50 (FMS): 0.213 ± 0.001 µM; fold more potent than imatinib over FMS (FMS): ~5 fold
COc1ccc(Oc2nc(Nc3ccc(N4CCOCC4)cc3)ncc2NC(=O)Cc2cc(OC)cc(OC)c2)cc1 [5e, 2-(3,5-Dimethoxyphenyl)-N-(4-(4-methoxyphenoxy)-2-((4-morpholinophenyl)amino)pyrimidin-5-yl)acetamide]	152.7 to 153.7 °C	1.64%	-3.1%	0.34%	8.05%	-8.47%	1.34%	-6.34%	-2.58%	1.13%	2.09%	-22.4%	75.5 ± 0.8%	moderate to poor	–
COc1ccc(Oc2nc(Nc3ccc(N4CCOCC4)cc3)ncc2NC(=O)c2ccnc([N+](=O)[O-])c2)cc1 [5f, N-(4-(4-Methoxyphenoxy)-2-((4-morpholinophenyl)amino)pyrimidin-5-yl)-2-nitroisonicotinamide]	170 to 171 °C	6.7%	-4.97%	-0.19%	13.8%	-8.86%	21.4%	-3.19%	13.7%	32.8%	7.72%	-14.6%	65.4 ± 0.1%	moderate to poor	–
COc1ccc(Oc2nc(Nc3ccc(N4CCOCC4)cc3)ncc2NC(=O)c2cccc(SC)c2)cc1 [5g, N-(4-(4-Methoxyphenoxy)-2-((4-morpholinophenyl)amino)pyrimidin-5-yl)-3-(methylthio)benzamide]	–	22.7%	21.5%	23.7%	24.9%	24.3%	14.7%	13.9%	29.4%	31.7%	21.1%	4.7%	–	–	IC50 (FMS): 0.11 ± 0.008 µM; fold more potent than imatinib over FMS (FMS): ~ 9 fold and 9 fold; inhibition at 10 µM (FMS): 90.6 ± 0.8%

Source: paper PMC8468039, “Development of New Meridianin/Leucettine-Derived Hybrid Small Molecules as Nanomolar Multi-Kinase Inhibitors with Antitumor Activity” (Biomedicines, 2021)
